In the NIST ThermoML archive (doi:10.1016/j.jct.2016.07.008):

Experiment: xn = mol fraction of the nth substance listed
Settings: Liquid, Vibrating wire viscometry

Cc1ccc(C)c(C)c1 [1,2,4-trimethylbenzene] + CCCCO
viscosity [mPa·s]
Settings	x2 = 0.2999	x2 = 0.5289	x2 = 0.7991
333.15 K, 100 kPa	0.5848	0.6443	0.8537
333.15 K, 1000 kPa	0.5927	0.6496	0.8605
333.15 K, 5000 kPa	0.6096	0.6816	0.8976
333.15 K, 10000 kPa	0.6356	0.7029	0.94
333.15 K, 20000 kPa	0.6805	0.753	1.026
333.15 K, 30000 kPa	0.7326	0.8089	1.107
333.15 K, 40000 kPa	0.7951	0.8688	1.197
333.15 K, 50000 kPa	0.8476	0.9271	1.282
333.15 K, 60000 kPa	0.906	0.9904	1.379
333.15 K, 70000 kPa	0.9707	1.059	1.466
333.15 K, 80000 kPa	1.03	1.131	1.577
333.15 K, 100000 kPa	1.177	1.295	1.771
333.15 K, 120000 kPa	1.308	1.453	1.945
333.15 K, 140000 kPa	1.447	1.615	2.135
353.15 K, 100 kPa	0.4547	0.495	0.6105
353.15 K, 1000 kPa	0.4576	0.4993	0.618
353.15 K, 5000 kPa	0.4793	0.5174	0.6396
353.15 K, 10000 kPa	0.4978	0.5381	0.667
353.15 K, 20000 kPa	0.5414	0.5739	0.7229
353.15 K, 30000 kPa	0.577	0.6155	0.7805
353.15 K, 40000 kPa	0.6166	0.6521	0.8397
353.15 K, 50000 kPa	0.659	0.6945	0.9004
353.15 K, 60000 kPa	0.7031	0.7392	0.9627
353.15 K, 70000 kPa	0.7463	0.7855	1.026
353.15 K, 80000 kPa	0.7895	0.8338	1.092
353.15 K, 100000 kPa	0.8968	0.9482	1.226
353.15 K, 120000 kPa	0.997	1.062	1.367
353.15 K, 140000 kPa	1.117	1.194	1.512
